From US20260069588A1, “VEPDEGESTRANT FOR USE IN TREATING CANCER” (Arvinas Operation, Inc., priority 2022, published 2026)
Where “and” joins values, the source holds several entries; their conditions need not be identical. Equal values may be shown once.

Tests used:
[1] = in vivo
From the text: TEAE's from participants in both studies have been combined and are described below.

[2] = Biopharmaceutics Classification System; type: physicochemical; settings: low solubility/low permeability
[3] = target: AR (Homo sapiens, UniProt P10275); test: Secondary pharmacodynamics binding, AR; settings: in vitro
[4] = 28-day GLP oral toxicity study in dogs; type: in vivo; settings: dog
From the text: There were no mortalities and no Compound A-related clinical observations, changes in BW or food consumption or ophthalmic observations. There were no ARV-471-related ECG abnormalities observed, including no effects on PR-interval, QRS duration, QT or QTc intervals, or heart rate and no arrhythmias or abnormal waveforms.

[5] = target: Aiolos (Homo sapiens, UniProt Q9UKT9); test: Cereblon neomorphic substrate degradation, Aiolos; type: cell-based; settings: in vitro
From the text: (§1) These drugs bind to cereblon and promote the degradation of novel (neomorphic) substrates.

[6] = Clinical Pharmacology Study: adverse events in healthy volunteers
From the text: The severity of adverse events was graded according to the National Cancer Institute Common Terminology Criteria for Adverse Events (NCI CTCAE) version 5.0.

[7] = target: GR (Homo sapiens, UniProt P04150); test: Secondary pharmacodynamics binding, GR; settings: in vitro
[8] = Clinical Pharmacology Study Fed/Fasted cohort: food effect on single-dose PK; type: in vivo, human; settings: 200 mg single dose
From the text: (§2) Study Design: The Clinical Pharmacology Study consists of 3 independent cohorts: 1) an open-label, randomized, 2-period, crossover Fed/Fasted cohort to determine food effects; 2) an open-label, 2-period, fixed sequence PPI cohort to evaluate interactions with esomeprazole; and 3) an open-label, randomized, 2 period, crossover rBA cohort to evaluate 2 tablet formulations.
Compound A should be taken with food.

[9] = tested on: cultured human peripheral blood lymphocytes; test: In vitro micronucleus assay; type: cell-based; settings: 3+21 hours ± S9; 24+24 hours −S9
Method: Compound A was tested in a GLP-compliant in vitro micronucleus assay.

[10] = tested on: MCF7/estradiol xenograft; test: MCF7/estradiol xenograft tumor growth inhibition; type: in vivo, mouse
Method: (§3) The 30 mg/kg dose was associated with a mean AUC0-24 of 5,717 ng·h/mL. The tumor ER levels were reduced by ≥94% at all doses compared to mice administered vehicle only (FIG. 3B).
(§4) The 30 mg/kg dose was associated with a mean AUC0-24 of 5,717 ng·h/mL.

[11] = MCF7/estradiol xenograft tumor growth inhibition; type: in vivo, mouse; settings: in vivo, oral; mouse, 30 mg/kg; read-out: mean AUC0-24
Method: as §3, §4

[12] = Interconversion (epimerization) Compound A/Compound B in animals; type: in vivo, mouse, rat, dog, and monkey; settings: monkey
[13] = Plasma protein binding, monkey; type: in vitro ADME; settings: read-out: free fraction
[14] = Clinical Pharmacology Study: single 200 mg dose PK, all 3 cohorts; settings: human, in vivo, oral
Method: The geometric mean T1/2 following a single 200 mg dose was approximately 40 hours under fed condition.

[15] = Preclinical PK after PO or intravenous dose; design: species or system mouse, dog, and monkey; settings: rat, in vivo
[16] = target: opioid kappa receptor (Homo sapiens, UniProt P41145); test: Secondary pharmacodynamics binding, opioid kappa receptor; settings: in vitro
[17] = tested on: ER+/HER2− locally advanced/metastatic breast cancer; test: FIH Study Part B (VERITAC): clinical benefit rate, PFS; type: in vivo, human
From the text: The primary endpoint was clinical benefit rate (CBR; rate of confirmed complete or partial response or stable disease ≥24 weeks).

[18] = tested on: ER+/HER2− locally advanced/metastatic breast cancer; test: as above; type: in vivo, human; remark: listed apart in the source
[19] = target: GSPT1 (Homo sapiens, UniProt P15170); test: Cereblon neomorphic substrate degradation, GSPT1; type: cell-based; settings: in vitro
From the text: as §1

[20] = target: T1, ER (Rattus norvegicus, UniProt P06211); test: Uterine wet weight in juvenile rats (ER agonist activity); type: in vivo
T1 construct: uterine wet weight in juvenile rats; from tissue; host or cells: uterus of juvenile rats, in vivo

[21] = Plasma protein binding, dog; type: in vitro ADME; settings: read-out: free fraction
[22] = Clinical Pharmacology Study PPI (esomeprazole) cohort: single-dose PK; type: in vivo, human; settings: 200 mg
From the text: as §2

[23] = tested on: reticulocytes; test: Rat micronucleus test; type: in vivo; settings: 400, 800, 1600 mg/kg/day, two days

Sequence of AR (P10275 whole entry): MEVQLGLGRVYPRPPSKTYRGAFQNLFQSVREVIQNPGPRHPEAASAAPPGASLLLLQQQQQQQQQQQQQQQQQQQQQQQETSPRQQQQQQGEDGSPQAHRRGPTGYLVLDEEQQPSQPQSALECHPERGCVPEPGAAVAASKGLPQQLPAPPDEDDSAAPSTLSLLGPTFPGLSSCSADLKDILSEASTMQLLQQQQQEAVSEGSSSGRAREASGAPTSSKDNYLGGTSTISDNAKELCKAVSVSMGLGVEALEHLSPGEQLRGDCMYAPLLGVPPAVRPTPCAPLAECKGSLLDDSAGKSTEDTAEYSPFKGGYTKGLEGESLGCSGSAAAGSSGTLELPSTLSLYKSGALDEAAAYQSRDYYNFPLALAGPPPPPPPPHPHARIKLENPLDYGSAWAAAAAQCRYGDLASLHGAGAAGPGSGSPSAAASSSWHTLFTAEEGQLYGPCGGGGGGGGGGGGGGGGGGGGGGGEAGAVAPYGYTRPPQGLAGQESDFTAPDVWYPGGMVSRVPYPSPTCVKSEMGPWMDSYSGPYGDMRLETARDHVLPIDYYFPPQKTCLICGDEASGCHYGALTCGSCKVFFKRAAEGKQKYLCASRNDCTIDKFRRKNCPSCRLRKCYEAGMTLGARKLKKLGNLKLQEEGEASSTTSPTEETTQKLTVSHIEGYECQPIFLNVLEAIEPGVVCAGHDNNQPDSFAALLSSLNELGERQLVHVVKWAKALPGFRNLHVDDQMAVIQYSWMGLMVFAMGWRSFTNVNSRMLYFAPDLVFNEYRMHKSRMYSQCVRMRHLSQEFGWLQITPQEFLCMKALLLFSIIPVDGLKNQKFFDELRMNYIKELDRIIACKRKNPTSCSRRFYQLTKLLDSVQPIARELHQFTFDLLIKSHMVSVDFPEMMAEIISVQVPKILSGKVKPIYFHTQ
T1 sequence (P06211 whole entry): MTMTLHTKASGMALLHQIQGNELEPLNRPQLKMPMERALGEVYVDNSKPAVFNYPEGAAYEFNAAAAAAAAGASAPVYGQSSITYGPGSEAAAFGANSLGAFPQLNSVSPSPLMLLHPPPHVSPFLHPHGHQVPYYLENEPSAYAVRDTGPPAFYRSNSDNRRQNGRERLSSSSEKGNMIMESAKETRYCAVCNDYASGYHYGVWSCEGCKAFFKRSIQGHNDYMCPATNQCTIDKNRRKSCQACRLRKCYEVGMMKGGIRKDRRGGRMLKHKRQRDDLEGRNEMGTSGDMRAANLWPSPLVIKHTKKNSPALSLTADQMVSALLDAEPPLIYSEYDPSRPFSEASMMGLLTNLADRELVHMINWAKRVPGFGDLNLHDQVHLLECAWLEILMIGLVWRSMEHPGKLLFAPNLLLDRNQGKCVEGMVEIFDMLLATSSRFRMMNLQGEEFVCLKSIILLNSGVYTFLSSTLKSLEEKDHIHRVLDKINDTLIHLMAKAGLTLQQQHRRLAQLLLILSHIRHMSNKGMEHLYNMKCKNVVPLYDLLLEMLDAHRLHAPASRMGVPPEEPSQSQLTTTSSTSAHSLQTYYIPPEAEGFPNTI
Sequence of GR (P04150 whole entry): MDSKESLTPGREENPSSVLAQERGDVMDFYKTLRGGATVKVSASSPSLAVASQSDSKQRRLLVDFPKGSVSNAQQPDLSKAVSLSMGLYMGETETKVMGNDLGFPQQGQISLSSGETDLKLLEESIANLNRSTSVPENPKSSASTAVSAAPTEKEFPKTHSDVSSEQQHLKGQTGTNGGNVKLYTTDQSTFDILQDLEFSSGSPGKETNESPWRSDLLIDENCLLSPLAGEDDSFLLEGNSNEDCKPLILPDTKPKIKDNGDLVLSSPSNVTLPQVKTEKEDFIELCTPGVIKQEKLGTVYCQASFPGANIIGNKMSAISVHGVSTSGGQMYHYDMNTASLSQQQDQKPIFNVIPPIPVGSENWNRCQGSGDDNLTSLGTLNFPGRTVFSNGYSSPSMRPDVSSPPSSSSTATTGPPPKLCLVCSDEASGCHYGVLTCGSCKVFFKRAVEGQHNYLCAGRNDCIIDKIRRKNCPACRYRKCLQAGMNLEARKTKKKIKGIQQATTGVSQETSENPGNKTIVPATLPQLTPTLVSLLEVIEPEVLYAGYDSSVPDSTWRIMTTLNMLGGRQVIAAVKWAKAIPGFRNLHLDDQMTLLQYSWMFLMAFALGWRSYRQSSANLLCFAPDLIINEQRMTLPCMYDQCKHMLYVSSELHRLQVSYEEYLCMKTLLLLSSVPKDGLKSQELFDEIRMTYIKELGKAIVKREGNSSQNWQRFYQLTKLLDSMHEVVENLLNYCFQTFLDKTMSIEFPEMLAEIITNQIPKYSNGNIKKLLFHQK
Sequence of opioid kappa receptor (P41145 whole entry): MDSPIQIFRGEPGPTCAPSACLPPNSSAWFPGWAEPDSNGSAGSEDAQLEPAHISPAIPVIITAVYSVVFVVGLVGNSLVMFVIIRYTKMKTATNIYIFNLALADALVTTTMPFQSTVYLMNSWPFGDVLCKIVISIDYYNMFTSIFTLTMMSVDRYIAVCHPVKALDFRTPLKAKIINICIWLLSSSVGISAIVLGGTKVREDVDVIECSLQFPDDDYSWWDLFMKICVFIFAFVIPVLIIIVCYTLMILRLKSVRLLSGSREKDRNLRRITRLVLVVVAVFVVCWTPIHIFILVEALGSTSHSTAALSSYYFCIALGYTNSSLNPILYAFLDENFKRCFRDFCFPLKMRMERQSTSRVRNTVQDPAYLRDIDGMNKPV
Sequence of GSPT1 (Q96SW2 whole entry partner, species assumed): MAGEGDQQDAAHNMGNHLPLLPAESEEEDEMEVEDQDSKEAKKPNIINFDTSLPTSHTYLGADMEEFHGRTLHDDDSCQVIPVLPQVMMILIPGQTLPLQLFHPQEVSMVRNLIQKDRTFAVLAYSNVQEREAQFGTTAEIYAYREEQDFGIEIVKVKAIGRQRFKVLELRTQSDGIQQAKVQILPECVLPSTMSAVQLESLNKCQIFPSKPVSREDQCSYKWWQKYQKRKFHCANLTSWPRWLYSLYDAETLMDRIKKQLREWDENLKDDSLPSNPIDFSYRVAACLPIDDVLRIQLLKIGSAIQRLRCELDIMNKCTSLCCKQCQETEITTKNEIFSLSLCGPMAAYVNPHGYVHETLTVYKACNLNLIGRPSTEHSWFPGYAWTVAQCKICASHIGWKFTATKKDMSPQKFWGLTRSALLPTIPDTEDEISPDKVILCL
Sequence of GSPT1 (Q16531 whole entry partner, species assumed): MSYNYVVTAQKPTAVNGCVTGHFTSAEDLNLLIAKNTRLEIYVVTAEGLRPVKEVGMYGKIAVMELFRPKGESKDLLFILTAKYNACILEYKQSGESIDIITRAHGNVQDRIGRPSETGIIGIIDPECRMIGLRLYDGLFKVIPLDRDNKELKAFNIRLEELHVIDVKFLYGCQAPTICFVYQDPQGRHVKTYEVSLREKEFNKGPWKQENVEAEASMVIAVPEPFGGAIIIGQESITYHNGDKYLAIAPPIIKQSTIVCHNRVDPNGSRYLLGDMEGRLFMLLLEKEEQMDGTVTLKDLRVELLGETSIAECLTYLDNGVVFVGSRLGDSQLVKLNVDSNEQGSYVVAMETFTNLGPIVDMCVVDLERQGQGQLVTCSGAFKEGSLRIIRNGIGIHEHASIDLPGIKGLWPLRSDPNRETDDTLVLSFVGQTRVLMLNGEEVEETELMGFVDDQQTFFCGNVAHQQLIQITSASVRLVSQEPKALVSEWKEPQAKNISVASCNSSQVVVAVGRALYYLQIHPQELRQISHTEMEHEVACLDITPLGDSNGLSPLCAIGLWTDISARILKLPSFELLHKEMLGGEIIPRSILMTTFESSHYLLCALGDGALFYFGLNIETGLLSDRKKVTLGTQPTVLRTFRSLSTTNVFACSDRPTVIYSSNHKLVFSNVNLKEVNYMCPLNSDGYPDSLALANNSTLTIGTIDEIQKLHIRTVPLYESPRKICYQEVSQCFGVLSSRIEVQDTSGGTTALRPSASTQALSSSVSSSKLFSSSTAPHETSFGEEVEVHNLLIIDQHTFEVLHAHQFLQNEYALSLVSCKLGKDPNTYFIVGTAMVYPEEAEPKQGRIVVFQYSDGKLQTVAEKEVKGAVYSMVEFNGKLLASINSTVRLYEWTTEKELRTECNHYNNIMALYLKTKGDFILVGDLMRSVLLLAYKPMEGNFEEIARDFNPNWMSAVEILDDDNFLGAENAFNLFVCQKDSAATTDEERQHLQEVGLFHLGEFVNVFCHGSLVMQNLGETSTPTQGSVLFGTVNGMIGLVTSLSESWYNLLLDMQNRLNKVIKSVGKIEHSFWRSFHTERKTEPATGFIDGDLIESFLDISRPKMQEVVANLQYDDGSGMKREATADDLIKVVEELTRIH
Sequence of GSPT1 (P15170 whole entry, species assumed): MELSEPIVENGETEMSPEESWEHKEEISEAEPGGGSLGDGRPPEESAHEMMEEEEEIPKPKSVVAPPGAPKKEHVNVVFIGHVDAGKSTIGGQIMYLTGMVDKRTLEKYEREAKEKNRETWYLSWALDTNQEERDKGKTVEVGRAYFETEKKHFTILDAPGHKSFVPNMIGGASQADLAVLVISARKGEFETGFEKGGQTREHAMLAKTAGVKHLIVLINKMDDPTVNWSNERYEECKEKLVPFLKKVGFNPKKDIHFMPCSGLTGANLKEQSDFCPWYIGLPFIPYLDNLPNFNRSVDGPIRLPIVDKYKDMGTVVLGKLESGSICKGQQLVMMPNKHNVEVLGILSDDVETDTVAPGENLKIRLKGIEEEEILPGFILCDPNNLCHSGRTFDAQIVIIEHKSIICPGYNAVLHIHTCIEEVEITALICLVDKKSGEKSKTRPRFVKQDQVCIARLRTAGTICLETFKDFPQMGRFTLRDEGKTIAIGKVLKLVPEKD

O=C1CC[C@H](N2Cc3cc(N4CCN(CC5CCN(c6ccc([C@@H]7c8ccc(O)cc8CC[C@@H]7c7ccccc7)cc6)CC5)CC4)ccc3C2=O)C(=O)N1 [Compound A, (S)-3-(5-(4-((1-(4-((1R,2S)-6-hydroxy-2-phenyl-1,2,3,4-tetrahydronaphthalen-1-yl)phenyl)piperidin-4-yl)methyl)piperazin-1-yl)-1-oxoisoindolin-2-yl)piperidine-2,6-dione]
deaths [1]: No deaths were reported | Biopharmaceutics Classification System class [2]: Class IV | binding [3]: bound | ECG evaluations ([4]; 28 days, up to 90 mg/kg/day): did not elicit any changes in ECG evaluations | NOAEL at 28 days ([4]; in vivo, 28 days oral): 90 mg/kg/day | degradation of Aiolos [5]: did not degrade | TRAEs of Grade 2 or higher ([6]; 200 mg, healthy participants): no TRAEs of Grade 2 or higher were reported | tolerability ([6]; 200 mg, healthy participants): well-tolerated | Grade 1 TEAEs ([6]; Fast/Fed cohort): 21.4% | Grade 2 TEAEs ([6]; Fast/Fed cohort): 14.3% | Grade 3 or higher TEAEs ([6]; Fast/Fed cohort): No participants reported Grade 3 or higher TEAEs | TEAE ligament sprain ([6]; Fast/Fed cohort n=14): 14.3% | TRAE pollakiuria ([6]; Fast/Fed cohort n=14): 7.1% | Grade 1 TEAEs ([6]; PPI cohort): 47.1% | Grade 2 TEAEs ([6]; PPI cohort): 5.9% | Grade 3 or higher TEAEs ([6]; PPI cohort): No participants reported Grade 3 or higher TEAEs | TRAEs nausea, headache, pruritus, each ([6]; PPI cohort): 5.9% | TEAE Headache ([6]; PPI cohort n=17): 29.4% | participants with at least 1 TRAE ([6]; PPI cohort n=17): 11.8% | participants with TEAE leading to discontinuation ([6]; PPI cohort, due to COVID): One | SAEs, SARs, deaths ([6]; all cohorts): No SAEs, SARs or deaths were reported | participants with at least 1 TRAE ([6]; all cohorts): 3 of 47 participants | participants with TEAEs ([6]; all cohorts, 200 mg): 15 of 47 participants | TRAEs ([6]; rBA cohort n=16): No participants reported a TRAE | participants with a TEAE (dizziness, Grade 1) ([6]; rBA cohort n=16): 6.3% | binding [7]: bound | increase of AUCinf by high-fat meal [8]: 125% | increase of AUCinf by high-fat meal vs fasted [8]: 2.2 fold and 2 fold | increase of Cmax by high-fat meal [8]: 184% | increase of Cmax by high-fat meal vs fasted [8]: 2.8 fold and 3 fold | frequency of micronuclei [9]: did not induce biologically relevant increases | TGI ([10]; 3 mg/kg PO QD 28 days): 85% | TGI ([10]; 10 mg/kg PO QD 28 days): 98% | TGI ([10]; 30 mg/kg PO QD 28 days): 124% | AUC(0-t) [11]: 5720 ng·h/mL | extent of epimerization [12]: negligible | fraction unbound at 1 μM [13]: 0.04 | half-life ([14]; fed, read-out: geometric mean T1/2 (converted)): ~40 h | Tmax ([14]; read-out: median Tmax across cohorts): 6 to 8 h | bioavailability ([15]; mouse, dog, monkey, po, range across species): 27 to 65% | half-life ([15]; mouse, dog, monkey, range across species): 2.1 to 8.2 h | Vd ([15]; intravenous, read-out: VSS): 6 L/kg | binding [16]: bound | CBR ([17]; 200 mg QD, WT PIK3CA n=20, 95% CI 19-64): 40.0% | CBR ([17]; 200 mg QD, all evaluable n=35, Nov. 1, 2022, 95% CI 21-55): 37.1% | CBR ([17]; 200 mg QD, mutant ESR1 n=19, Nov. 1, 2022, 95% CI 24-71): 47.4% | CBR ([17]; 200 mg QD, mutant PIK3CA n=15, 95% CI 12-62): 33.3% | CBR ([17]; ITT (n=71)): 38% | CBR ([17]; ITT ESR1m (n=41)): 51.2% | PFS ([17]; ITT ESR1m (n=41)): 5.7 months | CBR ([17]; no prior fulvestrant or chemotherapy in metastatic setting (n=8)): 62.5% | CBR ([17]; patients with WT ESR1 (n=25)): 20% | median progression-free survival ([18]; 200 mg QD, all evaluable, 95% CI 1.8-7.8): 3.5 months | PFS ([18]; ITT (n=71)): 3.7 months | degradation of GSPT1 [19]: did not degrade | uterine wet weight [20]: did not increase uterine wet weight | fraction unbound at 1 μM [21]: 0.026 | AUC with PPI vs without PPI [22]: similar | decrease of median Cmax by PPI [22]: about 18% | decrease of AUCinf by multiple doses of esomeprazole 40 mg ([22]; moderate-fat meal): 11% | decrease of Cmax by multiple doses of esomeprazole 40 mg ([22]; moderate-fat meal): 17.1% | chromosomal damage in reticulocytes [23]: did not induce chromosomal damage
